Measurements as given in patent US20150224089A1, “COMBINATIONS OF IKKi/TBK1 INHIBITORS WITH BETA ADRENERGIC AGONISTS OR SYMPATHETIC NERVOUS SYSTEM ACTIVATORS” (THE REGENTS OF THE UNIVERSITY OF MICHIGAN, priority 2014, published 2015).

Columns and labels:
3T3-L1 adipocytes = test: Ucp1 gene expression in 3T3-L1 adipocytes; format: cell-based; conditions: long-term treatment with TNFα
Protocol: (A) Fold increase in Ucp1 expression in 3T3-L1 adipocytes expressing empty vector, Flag-IKKε, or Flag-IKKε K38A following treatment with or without 10 μM ISO (black bars) or 10 μM CL-316,243 (CL, gray bars) for 4 hr. (B) Glycerol release from 3T3-L1 adipocytes expressing empty vector (white bars), Flag-IKKε (black bars), or Flag-IKKε K38A (gray bars) treated with or without 10 μM ISO or 10 μM CL. (C) Immunoblots of whole cell lysates from FIG. 1B. Results were replicated in triplicate. D.E. stands for dark exposure and L.E. stands for light exposure. (D) Immunoblots of whole cell lysates from 3T3-L1 adipocytes expressing empty vector or Flag-IKKε treated with or without 50 μM FSK for 15 min. (E) cAMP levels from 3T3-L1 adipocytes expressing empty vector, Flag-IKKε, or Flag-IKKε K38A treated with or without 10 μM ISO or 50 μM FSK for 15 min.
Sympathetic activation of adipose tissue is involved in maintaining energy balance by stimulating lipolysis and fat oxidation (Coppack et al., 1994; Langin, 2006; Festuccia et al., 2011; herein incorporated by reference in their entireties). Activation of β-adrenergic signaling by either β-adrenergic agonists or cold exposure in white and brown adipose tissue initiates a cascade of events through cyclic AMP (cAMP), culminating in the transcriptional upregulation of Ucp1, which results in increased proton leak and energy expenditure (Himms-Hagen et al., 2000; Cao et al., 2004; Yehuda-Shnaidman et al., 2010; herein incorporated by reference in their entireties). […] This effect was further analyzed by overexpressing IKKε in 3T3-L1 adipocytes and examining Ucp1 gene expression after treatment with the non-selective β-adrenergic agonist, isoproterenol (ISO), or the β3-adrenergic agonist, CL-316,243. Fold difference in Ucp1 gene expression was calculated by normalization of relative Ucp1 mRNA levels in treated relative to control samples. […] The induction of Ucp1 gene expression in response to ISO or CL-316,243 was blunted when WT IKKε was overexpressed in these cells. […]

diet-induced obese mice = test: Serum FFA and glycerol after CL-316,243 injection in ND- or HFD-fed mice; format: in vivo; conditions: amlexanox-treated HFD mice compared to vehicle-treated HFD-fed mice; oral gavage 4 days
Protocol: (§1) (A) Fold increase in serum FFA (left panel) and glycerol (right panel) levels 15 min after CL-316,243 injection in ND- or HFD-fed mice treated with amlexanox or vehicle control for 4 days. (B) Glycerol release from ex vivo epididymal (left panel) and inguinal (right panel) WATs after 1 hr pretreatment with amlexanox or vehicle. CL-316,243 treatment was started at time zero. (C) Immunoblots in inguinal WAT lysates from FIG. 5B after 60 min of CL-316,243 treatment. (D) cAMP levels in epididymal WAT 20 min after CL-316,243 (CL) or saline control injection in HFD-fed mice treated with amlexanox or vehicle control for 4 days. (E) Immunoblots in epididymal WAT 5 min after CL-316,243 or saline control injection in HFD-fed mice treated with amlexanox or vehicle control for 4 days. (F) Relative oxygen comsumption of mice in each treatment group.
To test the functional importance of the noncanonical IKKs in maintaining energy balance in vivo, experiments were conducted during development of embodiments of the present invention to investigate whether the administration of a selective inhibitor of IKKε and TBK1, amlexanox, can reverse diet-induced catecholamine resistance in rodentsMice were fed a high fat or normal diet, treated them with amlexanox by oral gavage for 4 days (prior to the point when weight loss is seen), and then gave a single intraperitoneal (IP) injection of the β3-adrenergic agonist CL-316,243. Injection of CL-316,243 stimulated a threefold increase in serum FFA and glycerol levels in both vehicle and amlexanox-treated mice on normal diet (ND).

[1] = tested on: epididymal adipose tissue; test: cAMP levels in epididymal WAT after CL-316,243 injection in HFD-fed mice; format: in vivo; conditions: HFD mice pretreated with amlexanox 4 days; 20 min after CL-316,243 IP injection
Protocol: as §1
(§2) To examine whether inhibition of TBK1 and IKKε with amlexanox reverses resistance to catecholamineinduced lipolysis in vivo by increasing stimulation of cAMP production, cAMP levels we measured in epididymal adipose tissue from mice on HFD after CL-316,243 IP injection. Levels of cAMP were increased after CL-316,243 IP injection in mice on HFD pretreated with amlexanox (FIG. 5D).

[2] = tested on: white adipose tissues from mice on a HFD; test: Glycerol release from ex vivo epididymal and inguinal white adipose tissue; conditions: ex vivo 1 hr pretreatment with amlexanox, CL-316,243 treatment, more pronounced in inguinal depot
Protocol: as §1, with “group. […]” for “group.”

inguinal WAT = test: Immunoblots in ex vivo inguinal WAT lysates after CL-316,243 treatment; parameters: species or system mice
Protocol: as §1, with “group. […]” for “group.”

epididymal WAT = test: Immunoblots (HSL phosphorylation) in epididymal WAT after CL-316,243 injection in HFD-fed mice; format: in vivo; conditions: HFD-fed mice pretreated with amlexanox 4 days; 5 min after CL-316,243 IP injection
Protocol: as §1, §2

Molecule | induction of Ucp1 gene expression in response to β-adrenergic stimuli (3T3-L1 adipocytes) | fold increase in serum glycerol levels after CL-316,243 (diet-induced obese mice) | cAMP levels in epididymal adipose tissue [1] | glycerol release from white adipose tissues [2] | phosphorylation of TBK1 at Ser172 (inguinal WAT; ex vivo amlexanox pretreatment, relief of feedback inhibition) | phosphorylation of HSL, perilipin and PKA substrate motif proteins in response to CL-316,243 (inguinal WAT; inguinal fat depot, amlexanox pretreatment vs vehicle-pretreated, 60 min CL-316,243) | HSL phosphorylation in epididymal WAT (epididymal WAT)
TNFα | repressed |  |  |  |  |  | 
CC(C)c1ccc2oc3nc(N)c(C(=O)O)cc3c(=O)c2c1 [amlexanox, 2-amino-7-isopropyl-1-azaxanthone-3-carboxylic acid; 2-amino-7-isopropyl-5-oxo-5H-chromeno[2,3-b]pyridine-3-carboxylic acid] |  | significantly higher | increased | enhanced glycerol release | increased | increased phosphorylation | increased
